From US12697402B2, “Detection of colonic neoplasia in vivo using near-infrared peptide targeted against overexpressed cMet” (THE REGENTS OF THE UNIVERSITY OF MICHIGAN, priority 2019, dated 2026) come the findings set out here.

“Also recorded” adds a separate entry of the source. Peptide text beside a SMILES is read from it. * marks the point of attachment. X1 = CN1/C(=C/C=C/C=C/C2=[N+](CCCCCC(=O)*)c3ccc4ccccc4c3C2(C)C)C(C)(C)c2c1ccc1ccccc21

One series has as its target cMet (HT29 cells) (Homo sapiens, UniProt P08581). As to the kind of experiment: biochemical.
In the next series the test system is CCD841 cells. As to the kind of experiment: Alamar blue assay, CCD841. The note with it: normal colon cells; 48 hours; HGF 25 ng/mL; peptide 5 or 100 μM. The format is cell-based, human. Here is the method: (§1) An alamar blue assay was performed using HT29 and CCD841 cells. After culturing in serum free media overnight, about 3×10^3 cells were seeded per well in serum free media in 96 well plates at a final volume of 100 μL per well. […] Alamar blue reagent (10 μL) was added in amounts equal to 10% of the volume in the well, and incubated at 37° C. for 4 hours. Fluorescence with excitation at λex=530-560 nm, and emission at λex=590 nm, was measured.
Background: Resazurin is reduced to fluorescent resorufin, in cell work by metabolically active cells.

Series [1] has as its system phosphorylation of cMet, AKT and ERK1/2. In words: Effect of peptide on cell signaling (Western blot). The format is cell-based, human. The note with it: HT29 cells; 10, 30, 120 min; HGF 25 ng/mL; peptide 5 or 100 μM. Here is the method:
HT29 cells were treated with serum-free medium overnight for starvation before incubation with hHGF (hHGF, 294-HG-005, R&D) or peptides. Recombinant Human HGF Protein was added to HT29 cells at concentrations of 25 ng/ml for 10, 30, or 120 min in separate wells. QQT*-Cy5.5 and TLQ*-Cy5.5 were added at concentrations of 5 or 100 μM for 10, 30, and 120 min. Peptides were added at concentrations of 5 and 100 μM for 10, 30, or 120 min. Cells were then washed with 1×PBS and lysed with Pierce RIPA buffer containing Halt Phosphatase Inhibitor Cocktail (Thermo Fisher) and Halt Protease Inhibitor Cocktail (Thermo Fisher). Protein contents were quantified by Bicinchoninic Acid Assay (BCA). Anti-cMet antibody (Cell Signaling, #8198), phospho-cMet (Tyr1234/1235) antibody (Cell Signaling, #3077), anti-AKT antibody (Cell Signaling, #4691), anti-phospho-AKT antibody (Cell Signaling, #9271), anti-ERK1/2 antibody (Abcam, #ab17942), anti-phospho-ERK1/2 antibody (Abcam, #ab50011), and anti-tubulin antibody (Invitrogen, #32-2600) were used per manufacturer's instructions.
On the technique in general: In western blotting, separated proteins are transferred to a membrane and probed.

The subject of a further series is HT29 cells. As to the kind of experiment: Alamar blue assay, HT29. It counts as cell-based, human. The note with it: 48 hours; HGF 25 ng/mL; peptide 5 or 100 μM. Here is the method:
as §1

One may read the Kd as the concentration at which binding is half-saturated. A high value points to weaker binding.

cMet (HT29 cells), sequence (P08581 25-1390): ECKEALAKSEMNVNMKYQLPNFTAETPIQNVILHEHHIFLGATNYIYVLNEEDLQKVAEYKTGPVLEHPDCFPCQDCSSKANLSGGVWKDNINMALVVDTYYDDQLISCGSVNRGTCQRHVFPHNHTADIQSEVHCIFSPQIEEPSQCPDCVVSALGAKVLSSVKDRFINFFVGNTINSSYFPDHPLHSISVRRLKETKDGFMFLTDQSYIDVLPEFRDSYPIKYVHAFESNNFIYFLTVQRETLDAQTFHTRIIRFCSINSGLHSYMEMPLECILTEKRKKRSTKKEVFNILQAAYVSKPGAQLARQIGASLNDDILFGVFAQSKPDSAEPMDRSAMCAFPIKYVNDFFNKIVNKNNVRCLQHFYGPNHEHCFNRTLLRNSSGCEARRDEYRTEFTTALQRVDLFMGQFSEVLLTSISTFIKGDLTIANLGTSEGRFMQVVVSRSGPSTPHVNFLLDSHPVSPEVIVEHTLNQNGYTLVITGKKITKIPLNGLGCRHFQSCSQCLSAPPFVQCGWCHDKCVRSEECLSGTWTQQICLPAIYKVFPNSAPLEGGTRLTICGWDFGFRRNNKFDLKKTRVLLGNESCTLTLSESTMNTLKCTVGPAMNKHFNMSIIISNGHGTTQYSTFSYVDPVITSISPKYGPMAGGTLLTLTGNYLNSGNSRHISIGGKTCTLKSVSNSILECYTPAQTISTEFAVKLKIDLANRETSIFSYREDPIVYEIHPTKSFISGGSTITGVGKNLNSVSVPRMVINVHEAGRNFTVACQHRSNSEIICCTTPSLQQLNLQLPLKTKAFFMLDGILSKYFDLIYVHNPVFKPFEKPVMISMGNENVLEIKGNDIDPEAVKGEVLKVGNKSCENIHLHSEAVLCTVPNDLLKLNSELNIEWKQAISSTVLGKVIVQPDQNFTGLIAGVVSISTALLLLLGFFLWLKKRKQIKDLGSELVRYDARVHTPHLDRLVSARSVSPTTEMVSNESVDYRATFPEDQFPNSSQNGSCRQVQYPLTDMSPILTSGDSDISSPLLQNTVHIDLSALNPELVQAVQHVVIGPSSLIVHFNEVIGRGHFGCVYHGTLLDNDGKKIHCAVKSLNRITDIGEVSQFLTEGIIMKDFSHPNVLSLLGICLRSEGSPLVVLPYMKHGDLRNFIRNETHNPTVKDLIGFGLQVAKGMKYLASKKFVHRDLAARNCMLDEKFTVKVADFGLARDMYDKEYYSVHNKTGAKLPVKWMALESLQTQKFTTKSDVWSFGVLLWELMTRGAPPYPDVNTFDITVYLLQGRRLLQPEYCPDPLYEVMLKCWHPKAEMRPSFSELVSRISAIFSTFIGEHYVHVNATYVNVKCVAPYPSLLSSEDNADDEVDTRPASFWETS
Description for cMet (HT29 cells): Cells then were washed 3 times with 1×PBS containing 0.5% BSA to remove unbound peptides before analysis with flow cytometry (FACS Canto; BD Biosciences, San Jose, CA). Sample means were used to calculate the equilibrium dissociation constant KD using nonlinear regression analysis with Origin 6.1 data analysis software (OriginLab, Northampton, MA). KD=1/KA was calculated by performing a least-squares fit of the data to the nonlinear equation I[X]=(I0+Imaxka[X])/(I0+ka[X]). I0 and Imax are the initial and maximum fluorescence intensities, corresponding to no peptide and peptide saturation, respectively, and [X] represents the concentration of the bound peptide.^34

`CC(C)C[C@H](NC(=O)[C@H](CO)NC(=O)[C@H](Cc1c[nH]c2ccccc12)NC(=O)[C@H](CC(N)=O)NC(=O)[C@@H](NC(=O)[C@H](CCC(N)=O)NC(=O)[C@@H](N)CCC(N)=O)[C@@H](C)O)C(=O)NCC(=O)NCC(=O)NCC(=O)N[C@@H](CO)C(=O)N[C@@H](CCCCNC(=O)CCCCC[N+]1=C(/C=C/C=C/C=C2/N(C)c3ccc4ccccc4c3C2(C)C)C(C)(C)c2c1ccc1ccccc21)C(N)=O` [QQT*-Cy5.5] (H-QQTNWSLGGGSK(X1)-NH2) yielded a Kd at cMet (HT29 cells) of 57 nM. For the same compound, the “growth of CCD841 cells” value with CCD841 cells was “no effect on growth; also recorded: No change”.

Regarding “HGF: recombinant human hepatocyte growth factor, known ligand for cMet, positive control”, the “phosphorylation of cMet and downstream AKT and ERK1/2” value in series [1] is listed as “strong phosphorylation activity; also recorded: induced phosphorylation”. Further, in the series with HT29 cells, the “growth of HT29 cells” value is recorded as “increased growth”.
